Columns and labels:
RAW264.7 cells = assay: Cell viability analysis (MTT), RAW264.7 cells; type: cell-based, murine; conditions: Raw264.7 cells, 5, 10, 20, 40 µM, 24 hours, compared to the control group (FIG. 1A)
Experimental: RAW264.7 murine macrophage cells were purchased from Korean Cell Line Bank (in Seoul, South Korea). A549 human alveolar basal epithelial cells were purchased from American Type Culture Collection (in ATCC, MD, USA). The cells were cultured in DMEM medium (manufactured by Corning Inc., NY, USA) containing 10% FBS (manufactured by Gibco, NY, USA) and 1X antibiotic-antimycotic solution (manufactured by ABAM, Corning Inc., NY, USA) under conditions of 37°C and 5% CO2.
To evaluate the cytotoxicity of gancaonin N, RAW264.7 cells and A549 cells were dispensed into 96-well plates (1 × 10^4 cells/well) and cultured under conditions of 37°C and 5% CO2. After the culturing, the cells were treated with gancaonin N at concentrations of 5, 10, 20, or 40 µM for 24 hours, and MTT solution (5 mg/mL) was added to each well. After adding 100 µL of dimethyl sulfoxide (DMSO, manufactured by Sigma-Aldrich, St. Louis, MO, USA), the absorbance was measured at 540 nm using a microplate reader (manufactured by Bio-Rad Hercules, CA, USA).
To examine the cytotoxicity of gancaonin N, the inventors treated Raw264.7 cells and A549 cells with gancaonin N according to the methods of Examples 1 to 4 and then measured cell viability.

COX-2 = assay: Western blotting of COX-2 in LPS-stimulated RAW264.7 cells; type: cell-based, murine; conditions: LPS 1 µg/mL, 5 to 40 µM, as treatment concentration increased (FIG. 2D)
Experimental: RAW264.7 cells and A549 cells were dispensed into 6-well plates (1 × 10^6 cells/well) and cultured under conditions of 37°C and 5% CO2. After the culturing, the Raw 264.7 cells were treated with 1 µg/mL of lipopolysaccharide (LPS) and the A549 cells were treated with 5 µg/mL of lipopolysaccharide (LPS) and with 5 µM to 40 µM of gancaonin N, and the cells were cultured for 24 hours or 6 hours. Then, the cells were lysed using a lysis buffer. In addition, the left lung extracted from each mouse was lysed using RIPA buffer. SDS-PAGE electrophoresis was performed on the cell and tissue lysates to separate proteins by side, and 5% bovine serum albumin was used for culturing and for blocking antibodies against PGE2 (1:500), IL-1β (1:500), IL-6 (1:500), TNF-α (1:500), i-NOS (1:500), COX-2 (1:1000), P-ERK1/2 (1:1000), ERK1/2 (1:3000), P-p38 (1:1000), p38 (1:3000), NF-κB p65 (1:1000), Lamin B1 (1:1000), and β-actin (1: 5,000).
To investigate the anti-inflammatory effect of gancaonin N, the inventors treated Raw264.7 cells with LPS and Gancaonin N, as described in Examples 1 to 6, and evaluated the expression level of inflammation-inducing factors. Thus, the inhibitory effect of gancaonin N on inflammation-related factors was specifically confirmed.

Compound: COc1ccc(-c2coc3cc(O)c(CC=C(C)C)c(O)c3c2=O)c(O)c1 [gancaonin N, 5,7-dihydroxy-3-(2-hydroxy-4-methoxyphenyl)-6-(3-methylbut-2-enyl)chromen-4-one]
- cell viability (RAW264.7 cells): did not decrease
- expression level of protein of COX-2 (COX-2): significantly decreased

From patent publication EP4205737A1, “COMPOSITION FOR PREVENTION, AMELIORATION, OR TREATMENT OF INFLAMMATORY DISEASES OR IMMUNE DISEASES COMPRISING GANCAONIN N AS ACTIVE INGREDIENT” (UNIVERSITY-INDUSTRY COOPERATION GROUP OF KYUNG HEE …, priority 2020, dated 2022)
